In PubChem BioAssay (NCI):
“And” between values parts separate entries of the source, which are not always exact repeats. Equal values may be shown once.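 Five compound concentrations were applied to cells in 96-well plates for 48 hours; endpoints were derived by simple linear interpolation of the resulting dose-response curve. The concentration for 50% growth inhibition is given as GI50. TGI marks complete inhibition of growth.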

Tests used:
Assay in all cases: NCI-60 cell line screen, 48 h
[1] = tested on: SNB-19 CNS
[2] = tested on: KM12 colon
[3] = tested on: SN12C renal
[4] = tested on: NCI-H226 lung
[5] = tested on: UACC-257 melanoma
[6] = tested on: IGROV1 ovarian
[7] = tested on: TK-10 renal
[8] = tested on: MCF7 breast
[9] = tested on: NCI-H522 lung
[10] = tested on: OVCAR-4 ovarian

SMILES | GI50 [1] | TGI [1] | GI50 [2] | TGI [2] | GI50 [3] | TGI [3] | GI50 [4] | TGI [4] | GI50 [5] [µM] | TGI [5] [µM] | GI50 [6] [µM] | TGI [6] [µM] | GI50 [7] | TGI [7] | GI50 [8] | TGI [8] | GI50 [9] | TGI [9] | GI50 [10] | TGI [10] [µM]
CCN1CCN(c2ccc(NC(=O)Nc3nc4ccc(-c5ccccc5OC)cc4s3)cc2)CC1 | 2.03 µM | 3.65 µM | 1.75 µM | 3.33 µM | 1.77 µM | 3.37 µM | 2.09 µM | 4.52 µM | 2.11 | 3.79 | 1.87 | 3.61 | 2.12 µM | 3.6 µM | 1.31 µM | 2.86 µM | 1.75 µM | 3.5 µM | 1.68 µM | 3.31
CN(C(=O)C(C)(C)C)c1ccccc1I(=O)=O | > 100 µM | > 100 µM | > 100 µM | > 100 µM | > 100 µM | > 100 µM | > 100 µM | > 100 µM | > 100 | > 100 | > 100 | > 100 | > 100 µM | > 100 µM | > 100 µM | > 100 µM | 16.1 µM | 30 µM | > 100 µM | > 100
CN1CCN(Cc2ccc(NC(=O)c3cncc(C#Cc4ccc(N)nc4)c3)cc2C(F)(F)F)CC1 | 2.6 µM | 9.44 µM | 0.0227 µM | 5.3 µM | 1.11 µM | 5.17 µM | 0.358 µM | 2.75 µM | 1.42 | 5.27 | 0.476 | 3.22 | 1.63 µM | 9.54 µM | 1.23 µM | 7.22 µM | 0.774 µM | 6.2 µM | 0.46 µM | 4.5
CC1(C)OCC2OC(n3cnc4c(N)nc(Cl)nc43)C(OS(C)(=O)=O)C2O1 (stereo not given) | – | > 100 µM | – | > 100 µM | – | > 100 µM | – | > 100 µM | – | > 100 | – | > 100 | – | > 100 µM | – | > 100 µM | – | > 100 µM | – | > 100
Nc1nc(N)c2c(ccc3c2ccn3Cc2cccc([N+](=O)[O-])c2)n1 | 0.0898 µM | 2.42 µM | 0.0937 µM and 0.129 µM | 2.21 µM and 1.95 µM | 0.0615 µM | 1.65 µM | 0.272 µM | 2.42 µM | 1.07 | 2.47 | 0.00295 | 0.0255 | 1.14 µM | 2.67 µM | 0.0565 µM and 0.0293 µM | 2.72 µM and 1.45 µM | 0.0607 µM | 1.82 µM | 1.15 µM | 2.59
CCC(=O)OCOc1ccc(/C=C2\CCC(CN(C)C)C2=O)cc1 (stereo not given) | – | 32.5 µM | – | 13 µM | – | 7.56 µM | – | 31.8 µM | – | 10.6 | – | 16.3 | – | 22.2 µM | – | 10.1 µM | – | 4.41 µM | – | 15.3
COc1c(C(N)=O)cc(-c2ccc(Cl)cc2)cc1-c1ccc(S(N)(=O)=O)cc1 | 14 µM | > 25 µM | 11 µM | > 25 µM | 10.5 µM | > 25 µM | 9.52 µM | > 25 µM | 8.72 | > 25 | 10.4 | > 25 | 6.65 µM | 18.8 µM | 11.9 µM | > 25 µM | 8.11 µM | > 20.8 µM | 10.6 µM | > 25
COc1cc2[nH]c3c(c2cc1OC)CCN[C@@]31CC[C@@]2(CC3c4c(cc(OC)c(O)c42)CCN3C)C[C@@H]1OC (stereo not given in full) | – | > 100 µM | – | > 85 µM | – | > 100 µM | – | > 100 µM | – | 32.9 | – | > 100 | – | 84.5 µM | – | > 100 µM | – | 66.7 µM | – | > 100
C[C@@H]1CC[C@@H]2[C@@H]1[C@H](OC(=O)/C=C/C1CCCCC1)[C@]1(C3CCCCC3)C[C@@H](OC(=O)CO)[C@@]2(C)O1 | 14.4 µM | 27 µM | 14.8 µM | 31.1 µM | 0.0321 µM | 15.1 µM | 14.3 µM | 28 µM | 15.8 | 29.6 | 14.4 | 29.8 | 15.8 µM | 29.5 µM | 12.8 µM | 25.6 µM | 13.7 µM | 27.1 µM | 13.1 µM | 26.6
O=C1C2=C(C(=O)c3ccccc31)C(O)(S(=O)(=O)O)C(O)(S(=O)(=O)O)C1N=CC=CC21 (stereo not given) | 4.28 µM and 5.5 µM | 44.4 µM and > 100 µM | 4.33 µM and 4.8 µM | 67.4 µM and 20 µM | 4.84 µM and 3.25 µM | > 100 µM and 14.1 µM | 9.22 µM and 11.9 µM | 69.2 µM and 27.7 µM | 10.8 | 47.7 | 2.19 | 9.5 | 6.25 µM and 9.35 µM | 68.3 µM and 28.8 µM | 4.9 µM and 3.26 µM | 29.1 µM and 27.2 µM | 4.8 µM and 2.13 µM | 39.6 µM and 5.71 µM | 3.66 µM and 2.99 µM | > 100
CC(C)(C)NCC(O)c1ccccc1Cl (stereo not given) | > 100 µM | > 100 µM | > 100 µM | > 100 µM | > 100 µM | > 100 µM | > 100 µM | > 100 µM | > 100 | > 100 | > 100 | > 100 | > 100 µM | > 100 µM | > 100 µM | > 100 µM | > 100 µM | > 100 µM | > 100 µM | > 100
COC(=O)Nc1nc2ccc(C(=O)c3cccc(I)c3)cc2[nH]1 | 0.0625 µM | > 39.8 µM | 0.0418 µM | 5.7 µM | 0.125 µM | > 33.3 µM | 0.259 µM | 25.4 µM | 15.1 | > 100 | 0.11 | 8.82 | 6.37 µM | 32.7 µM | 0.0369 µM | 15.9 µM | 0.0778 µM | 9.59 µM | 0.818 µM | 15.3
CC(=O)OC1CC2(C)C(=CC1C1SCCS1)CCC1C2CCC2(C)C(OC(C)=O)CCC12 (stereo not given) | – | > 100 µM | – | > 100 µM | – | > 100 µM | – | > 100 µM | – | > 100 | – | > 100 | – | > 100 µM | – | > 100 µM | – | > 100 µM | – | > 100
Clc1cnc(Nc2ccc(OCCN3CCCC3)cc2)nc1NCc1ccco1 | 3.51 µM | 13.5 µM | 0.643 µM | 10.1 µM | 2.42 µM | 10.6 µM | 0.671 µM | 11.3 µM | 2.44 | 6.32 | 2.5 | 12.8 | 2.28 µM | 11.8 µM | 1.51 µM | 10.2 µM | 1.75 µM | 3.96 µM | 2.86 µM | 13.9
NC1CC(=O)c2c(-c3cccs3)sc(-c3cccs3)c21 (stereo not given) | 36 µM | > 100 µM | 25 µM | > 100 µM | 24.3 µM | 69.8 µM | 21.6 µM | 48.3 µM | 52.3 | > 100 | 27.3 | > 100 | 16.3 µM | 40.3 µM | 16.9 µM | 44.4 µM | 22.1 µM | 87.5 µM | 43 µM | > 100
COc1cc2ncnc(Oc3ccc(NC(=O)Nc4ccc(CN5CCOCC5)c(C(F)(F)F)c4)c4ccccc34)c2cc1OC | 2.35 µM | 12.2 µM | 0.199 µM | 2.3 µM | 0.292 µM | 1.71 µM | 0.264 µM | 16 µM | 0.964 | 4.12 | 0.517 | 3.25 | 0.445 µM | 6.95 µM | 0.363 µM | 10.7 µM | 0.419 µM | 3.25 µM | 0.124 µM | 8.69
